Source: patent US20180055838A1, “METHODS AND COMPOSITIONS FOR TREATMENT OF DERMAL AND EPIDERMAL WOUNDS” (THE PENN STATE RESEARCH FOUNDATION, priority 2011, published 2018)

Columns and labels:
[1] = literature reports (Stinchcomb 2002; Krishman 2010); cited from earlier work
[2] = test system: basal cells of the cutaneous epithelium; assay: DNA synthesis (BrdU labeling index) in stratum basale of unwounded dorsal skin; assay type: in vivo; details: for increase of BrdU incorporation relative to labeling index of DB animals: DB (T1D) rats
Description: Male Sprague-Dawley rats (˜150 g) were purchased from Charles River Laboratories (Wilmington, Mass.), and housed under standard laboratory conditions; water and food were available ad libitum. All investigations conformed to the guidelines of The Pennsylvania State University College of Medicine Institutional Animal Care and Use Committee.
Type 1 diabetes (T1D) was induced by intraperitoneal (i.p.) injections of 40 mg/kg streptozotocin (STZ, Sigma, St. Louis, Mo.), on two consecutive days (Klocek et al., Journal of Ocular Pharmacology and Therapeutics, 23:89-102 (2007); Havel et al., Diabetes, 49:244-252 (2000)). This regimen produced insulin-dependent diabetes in 100% of the animals within 72-96 h; rats with blood glucose levels measuring >350 mg/dl were considered diabetic (DB). Blood glucose levels were monitored from the tail vein using a True Track® Smart System glucometer (Home Diagnostics, Ft. Lauderdale, Fla.) before receiving STZ, and at 1, 4, and 8 weeks following induction of hyperglycemia. Control animals receiving an injection of an equivalent volume of sterile saline were termed “normal”. All rats were weighed weekly.
Normal (n=24) and diabetic (DB) rats (n=24) were randomized 8 weeks after injections of STZ or saline, and received NTX (Sigma-Aldrich, Indianapolis, Ind.) systemically (30 mg/kg, i.p. or subcutaneous (s.c.) at 0800 h) or topically 3 times daily at 0700, 1200, and 1700 h. For topical applications, NTX was dissolved in Sorenson's phosphate buffer (SPB), KY jelly (KYJ) (K-Y, Personal Products Company, McNeil-PPC, Inc., Skillman, N.J.), Neutrogena moisturizing cream (MCN) (Neutrogena Corporation, Los Angeles, Calif.), or DMSO (VWR, Philadelphia, Pa.). NTX was dissolved in sterile water at dosages of 10^−4 M, 10^−5 M or 10^−6 M, and thoroughly mixed into each of the carriers (1:1, v/v); 0.5 ml of saline mixed into corresponding carriers served as the respective vehicle control.
On the day preceding NTX or vehicle treatment, an 8×8 cm area was shaved on the dorsal surface of each rat and 4 circles (approximately 20 mm in diameter) were made with a permanent marker to denote locations of subsequent topical applications and/or skin collection. Using an applicator stick, one ml of carrier containing NTX or vehicle was placed within the demarked areas. Applications of NTX formulations were randomized to different positions. Each animal received NTX in 3 different concentrations, as well as the vehicle, in the same carrier; some rats received only saline in a carrier or were untreated.
To assess cells undergoing DNA synthesis, rats were injected i.p. with 100 mg/kg BrdU (Sigma-Aldrich) 3 and 6 h before euthanasia with Euthasol (Virbac, Fort Worth, Tex.). Appropriate regions of the skin were removed, fixed in 10% buffered formalin, and paraffin sections (6 μm) were stained with anti-BrdU-POD (Invitrogen, Carlsbad, Calif.). BrdU stained cells in the basal layer of the epithelium were counted in four 0.1 mm grids at 250× magnification using 2 sections/specimen; 3 tissue specimens were analyzed for each dosage of NTX in each carrier.

[3] = test system: epithelium covering the granulation tissue; assay: Histopathology and epithelial thickness of wounded region 20 days after wounding; assay type: in vivo, rat
Description: On day 20 following creation of the wound, some rats were euthanized and the original wound areas as well as tissue peripheral to the wound that encompassed the 20 mm diameter circle were excised and fixed in 10% neutral buffered formalin. Tissues were processed for paraffin embedding; sections were stained with hematoxylin and eosin. The thickness of the epithelium covering the granulation tissue was measured with an ocular micrometer. Five measures/section from 7-8 wounds/treatment group were evaluated at 250× magnification.

[4] = test system: full-thickness cutaneous wound; assay: Healing of 5-mm full-thickness cutaneous wound in Type 2 diabetic (db/db) mice; assay type: in vivo; details: 10^−5 M NTX in moisturizing cream 3 times daily, by days 6, 13, and 15, p<0.05
Excerpt: To study the effects of opioid receptor antagonists on wound healing in a Type 2 diabetic and general obesity model, wound healing was compared between wild type and Lepr^db (also referred to as db/db) mutant mice. Mice homozygous for the diabetes spontaneous mutation (Lepr^db) become identifiably obese around 3 to 4 weeks of age. Plasma insulin levels become elevated beginning at 10 to 14 days and blood sugar levels become elevated beginning at four to eight weeks. These mice show delayed wound healing compared to wild type mice.
Mice were purchased from Jackson Laboratories and housed under standard laboratory care. Body weights and blood glucose levels of 8-week old Type 2 diabetic (db/db) mice and wild type C57Bl/6 mice were obtained (FIG. 9). Tail vein blood was obtained and glucose levels were measured by a TrueTrak glucometer. Values represent means±SEM; n=6-10 mice/treatment group.
To study wound healing, a 5-mm circular full-thickness cutaneous wound was created on the dorsum of db/db and wild type mice. Db/db mice were treated with either 10^−5 M Naltrexone (NTX) in moisturizing cream (vehicle), or vehicle alone; wild type mice received vehicle only. Applications were made 3 times daily for 15 days.

[5] = test system: full-thickness cutaneous wounds; assay: Closure of 6 mm full-thickness cutaneous wounds (residual wound area, contraction, re-epithelialization); assay type: in vivo, rat; details: Normal rats, 10^−5 M NTX in MCN; for reduction of wound area relative to MCN+vehicle: within 3 days
Description: In a second set of experiments, Normal (n=70) and DB (n=70) Sprague-Dawley rats, 12-14 weeks of age and 8 weeks after injection of STZ, were subjected to wounding. Eight rats/treatment regimen were evaluated over the course of 3 independent experiments. The dorsum of the rat was shaved, and areas (20 mm in diameter) outlined with a marker in order to consistently position the wounds. Animals were anesthetized by i.p. injection of ketamine (60 mg/kg), xylazine (10 mg/kg), and acepromazine (1 mg/kg), and a 6 mm full-thickness circular excisional skin wound was made in the center of the demarked area to the level of the panniculus muscle using an Acupunch (Acuderm Inc., Fort Lauderdale, Fla.). Three wounds per rat were standardized such that the first wound was made 5 cm posterior to the occipital notch at the posterior of the animal's cranium and 1 cm off the midline. The second wound was created 7 cm posterior to the occipital notch at the posterior of the animal's cranium and 1 cm off the midline on the opposite side from the first wound. The third wound was placed 9 cm posterior to the occipital notch at the base of the animal's cranium and 1 cm off the midline on the same side as the first wound. To minimize the effects of diurnal rhythm, surgery was performed between 0800-0900 h. All wounds were left uncovered.
Topical administration of ˜0.1 ml of the carrier containing NTX or vehicle, using the dosage and carriers selected from the first experiment, was initiated immediately after wounding (0800 h for those rats receiving agents only once per day, and at 0800, 1200, and 1600 h for those animals receiving 3 applications daily); control rats received the carrier with vehicle either once or three times daily. Some animals in the Normal and DB groups were wounded but untreated.
Wound size was monitored by capturing images with a digital camera mounted on a tripod set 20 cm from the surface; a ruler was photographed with each wound. Animals were manually restrained without anesthesia for photography. Photographs were taken immediately after surgery and on days 3, 5, 7, 9, and 11. The area of each wound was analyzed using Image ProPlus 6.2 (Media Cybernetics, Inc., Bethesda, Md.). The percent residual wound was calculated at each time point for every rat. At 8 days, wound closure also was quantified according to Pietramaggiori and colleagues (Pietramaggiori et al., J Surg Res 160:169-177 (2010)) by measuring contraction, re-epithelialization, and open wound as a percentage of the original wound area. The sum of contracted, re-epithelialized, and open wound area was defined as equaling 100% of the original wound size (Yannas I., Tissue and Organ Regeneration in Adults. New York: Springer, 2001).

human and animal cells = human and animal cells (Cheng 2009); cited from earlier work

In the case of `O=C1CC[C@@]2(O)[C@H]3Cc4ccc(O)c5c4[C@@]2(CCN3CC2CC2)[C@H]1O5` [NTX, 17-(cyclopropylmethyl)-4,5α-epoxy-3,14-dihydroxymorphinan-6-one], the “penetration of the skin” value [1] is listed as “poor penetrator of the skin”, the “increase of BrdU incorporation relative to labeling index of DB animals” value ([2]; systemic 30 mg/kg NTX i.p.) is listed as 181% and the “increase of BrdU incorporation relative to labeling index of DB animals” value ([2]; systemic 30 mg/kg NTX s.c.) is listed as 59%. For the same compound, the “effect on BrdU incorporation” value ([2]; DB rats, topical NTX 10^−4 and 10^−5 M in SPB) was “no effect”, the “elevation of labeling index from baseline levels” value ([2]; DB rats, topical NTX at all 3 dosages in KYJ) was 103-147% and the “elevation of labeling index from baseline levels” value ([2]; DB rats, topical NTX at all 3 dosages in MCN) was 85-89%. The “efficacy on BrdU labeling” value ([2]; DB rats, topical NTX combined with DMSO, only at 10^−4 and 10^−5 M) was “efficacious”, the “elevation of BrdU labeling relative to labeling index of Normal rats” value ([2]; Normal rats, systemic 30 mg/kg NTX i.p.) was 172% and the “elevation of BrdU labeling relative to labeling index of Normal rats” value ([2]; Normal rats, systemic 30 mg/kg NTX s.c.) was 51%. The “elevation of DNA synthesis from baseline levels” value ([2]; Normal rats, topical NTX 10^−4 M to 10^−6 M in any of the 4 carriers (SPB, DMSO, KYJ, MCN)) was 43-132%, the “increase in BrdU incorporation in the skin compared to baseline” value ([2]; Normal rats, topical NTX in SPB) was 43-56% and the “change of BrdU incorporation from baseline” value ([2]; Normal rats, topical NTX, different dosages, in MCN) was 73-132%. For the same compound, the “toxicity of the effects on cell proliferation” value ([2]; T1D and normal rats, systemic or topical) was “not toxic”, the “thickness of the epithelium relative to Normal animals receiving vehicle (24.6±1.6 μm)” value ([3]; DB rats subjected to NTX, day 20 (DB vehicle had a 44% reduction)) was “did not differ” and the “general structure of the epithelium (e.g., absence of necrotic cells)” value ([3]; Normal and DB rats receiving vehicle or NTX, 20 days following surgery) was “appeared to be similar”. For the same compound, the “thickness of the epithelium relative to Normal animals receiving vehicle (24.6±1.6 μm)” value ([3]; Normal rats treated with NTX, day 20) was “did not differ”, the “wound healing (percent residual defect) relative to db/db mice treated with vehicle only” value [4] was “significant improvement in would healing” and the “reduction of wound size relative to MCN+vehicle” value ([5]; one time daily, days 3, 5, 7, and 9) was 31-82%. The “reduction of wound area relative to MCN+vehicle” value ([5]; single daily regimen) was 30%, the “reduction of wound size relative to MCN+vehicle” value ([5]; three times daily, days 3, 5, 7, and 9 (day 9 not significant)) was 11-23% and the “reduction of wound area relative to MCN+vehicle” value ([5]; three times daily) was 11%. The entry into cells (human and animal cells) was “rapidly by passive diffusion”.
